How the values were obtained:
[1] = test system: human treated with interleukin-2; test: Hypotension during interleukin-2 treatment for renal cell cancer (Examples VIII, XIV); assay type: in vivo; details: interleukin-2 1×10^6 units, 5 days; mithramycin 25 μg/kg intravenously as pretreatment and at 24 hour intervals
Protocol: A human is treated for renal cell cancer with interleukin-2 (1×10^6 units) for 5 days. By the fifth day, the patient's blood pressure falls to 80/55 mm Hg and the patient encounters nausea and extreme discomfort. Three weeks later, the patient returns for a second course of interleukin-2 treatment but is pretreated (before commencing interleukin-2 infusion) with mithramycin (25 μg/kg) and is treated at 24 hour intervals thereafter with 25 μg/kg of mithramycin. The mithramycin is administered intravenously in 50 ml saline over a 3 to 6 hour interval.
A human is treated for renal cell cancer with interleukin-2 (1×10^6) for 5 days. Simultaneously with commencing interleukin-2 infusion, L-thiocitrulline (10 mg/kg/day) is administered.

[2] = test system: nitric oxide synthase mRNA; test: RT-PCR of nitric oxide synthase mRNA in induced rat aortic smooth muscle cells (Example III); assay type: cell-based; details: LPS 30 μg/ml plus interferon-gamma 50 ng/ml with mithramycin, 6 hours; FIG. 3
Protocol: (§1) Rat aortic smooth muscle cells were grown as described in Example I and were treated with 30 μg/ml bacterial lipopolysaccharide in combination with 50 ng/ml interferon-gamma. […] RNA was extracted by a modified guanidinium isothiocyanate method (RNAzol; Cinna/Biotecz, Houston, Tex.). Reverse transcriptase-polymerase chain reaction was performed by standard methods using 1 μg of total RNA. This was followed by polymerase chain reaction amplification using synthetic gene-specific primers for rat argininosuccinate synthetase as described in Amaya, Y., et al, J. Biochem. (Tokyo) 103, 177-181 (1988), for argininosuccinate lyase as described in Surh, L. C., et al, Nucleic Acids Research, 16, 9352 (1988) and murine-inducible nitric oxide synthase as described in Lyons, C. R., et al, J. Biol. Chem. 267, 6370-6374 (1992). The primers are specifically described in Hattori, Y., et al, J. Biol. Chem. 269, 9405-9408 (1994). Polymerase chain reaction amplification was performed according to the following schedule: denaturation, annealing, and elongation at 95, 55 and 72° C. for 30 sec, 30 sec and 1 min, respectively, for 30 cycles. […] Polymerase chain reaction products were electrophoresed on a 1.5% agarose gel containing ethidium bromide and visualized by UV-induced fluorescence. […]

[3] = test system: argininosuccinate synthetase mRNA; test: RT-PCR of argininosuccinate synthetase mRNA in induced rat aortic smooth muscle cells (Example III); assay type: cell-based; details: LPS 30 μg/ml plus interferon-gamma 50 ng/ml with mithramycin, 6 hours; FIG. 3
Protocol: as §1

[4] = test system: rat aortic smooth muscle cells; test: Nitrite production (indicator of cellular NO synthesis) by LPS/interferon-gamma induced rat aortic smooth muscle cells (Examples IV, V); assay type: cell-based; details: 24 hours, FIG. 4
Protocol: Rat aortic smooth muscle cells were grown as described in Example I and were continuously treated with 30 μg/ml of bacterial lipopolysaccharide in combination with 50 ng/ml of interferongamma. Concentrations of mithramycin as indicated in FIG. 4 were added either simultaneously with immunostimulant (filled in circles in FIG. 4) or 4 hours later (open circles in FIG. 4).
Nitrite was used as an indicator of cellular NO synthesis and assay was carried out as described in Gross, S. S., et al, J. Biol. Chem. 267, 25722-25729 (1992). In the assay, cells were treated with serum- and arginine-free RPMI 1640 medium containing the desired test agents for 24 hours. The accumulation of nitrite in the cell culture medium was quantified colorimetrically after adding 100 μl of Griess reagent (1% sulfanilamide and 0.1% naphthalene diamine in 5% o-phosphoric acid) to an equal volume of sample.
Rat aortic smooth muscle cells were grown as described in Example I and were treated with 30 μg/ml of bacterial lipopolysaccharide in combination with 50 ng/ml of interferon-gamma. Concentrations of L-citrulline and L-arginine as indicated in FIG. 5 were added simultaneously with immunostimulant. Nitrite was used as an indicator of cellular NO synthesis and assay therefor was carried out as described in Example IV.

Sprague-Dawley rats = test: Air pouch inflammatory model with croton oil (Examples XII, XVIII); assay type: in vivo, rat; details: mithramycin 25 μg/kg intraperitoneally, repeated at 24 hour intervals; end of 5 days; versus rats without drug

COC(C(=O)C(O)C(C)O)C1Cc2cc3cc(OC4CC(OC5CC(O)C(O)C(C)O5)C(O)C(C)O4)c(C)c(O)c3c(O)c2C(=O)C1OC1CC(OC2CC(OC3CC(C)(O)C(O)C(C)O3)C(O)C(C)O2)C(O)C(C)O1 (stereo not shown) [mithramycin]
development of hypotension [1]: hypotension does not develop
gene transcription of nitric oxide synthase (mRNA level) [2]: inhibits gene transcription of argininosuccinate synthetase and nitric oxide synthase
gene transcription of argininosuccinate synthetase (mRNA level) [3]: inhibits gene transcription of argininosuccinate synthetase
nitrite accumulation in cell culture medium ([4]; mithramycin added 4 hours after immunostimulant): effectiveness to block NO production is markedly diminished
nitrite accumulation in cell culture medium ([4]; mithramycin added simultaneously with immunostimulant): inhibits induction of NO synthetic activity but is not a direct inhibitor of argininosuccinate synthetase or nitric oxide synthase
inflammation (Sprague-Dawley rats): less inflammation
nitrite in the fluid exudate of the lesion (Sprague-Dawley rats): significantly less nitrite

From patent publication US5545625A, “Preventing conversion of citrulline to argininosuccinate to limit pathological nitric oxide overproduction” (The Medical College of Wisconsin Research Foundation, Inc., priority 1994, dated 1996)
